In patent US7537803B2, “Polymer coating/encapsulation of nanoparticles using a supercritical antisolvent process” (New Jersey Institute of Technology, priority 2003, dated 2009):

Assay: Dissolution of hydrocortisone in DCM of the coating suspension
Format: physicochemical
Details: suspension in PLGA/dichloromethane for SAS coating
From the text: An exemplary processing protocol according to the present disclosure is as follows. The precipitation chamber is first charged with SC CO2. After the predetermined operating conditions (temperature and pressure) are reached, a steady flow of CO2 is established by adjusting the metering valve and the metering pump. The flow rate of CO2 was usually less than 3.0 standard liters per minute (SLPM). PLGA and hydrocortisone (HC) are then weighed and mixed into dichloromethane (DCM) to produce a suspension with the desired polymer concentration and PLGA to HC ratio. The suspension-so-produced is then injected at a flow rate of 0.8 ml/min into the high pressure chamber through the capillary nozzle by using an HPLC pump (Beckman, 110B) for about 10 minutes. After spraying, fresh CO2 is supplied continuously to purge the chamber with about 1 equivalent volume of CO2 in order to remove any remaining dichloromethane. After purging, the precipitation chamber is slowly depressurized and the coated drug particles collected for characterization.
Initially, reference is made to FIG. 18 wherein SEM images of the untreated hydrocortisone particles employed in the experimental studies are shown. Hydrocortisone is seen to be in crystal form with defined facets and sharp edges. […] The coated particles have a different shape (morphology) and no clear sharp edges when compared with the uncoated drug particles. […]

hydrocortisone dissolved in DCM, share of the total: about 17%
SMILES: C[C@]12CCC(=O)C=C1CC[C@@H]1[C@@H]2[C@@H](O)C[C@@]2(C)[C@H]1CC[C@]2(O)C(=O)CO [hydrocortisone, Hydrocortisone]
